Numbers after ± are expanded uncertainties.
How the values were obtained:
[1] = refractive index (Na D-line) (dimensionless); details: 293.1 K; 101.33 kPa; Liquid; Standard Abbe refractometry
[2] = Liquid

SMILES | refractive index [1] | vapor or sublimation pressure ([2]; 293.15 K) [kPa] | vapor or sublimation pressure ([2]; 303.15 K) [kPa] | vapor or sublimation pressure ([2]; 313.15 K) [kPa] | vapor or sublimation pressure ([2]; 323.15 K) [kPa] | vapor or sublimation pressure ([2]; 333.15 K) [kPa] | vapor or sublimation pressure ([2]; 343.15 K) [kPa] | vapor or sublimation pressure ([2]; 353.15 K) [kPa] | vapor or sublimation pressure ([2]; 363.15 K) [kPa] | vapor or sublimation pressure ([2]; 369.15 K) [kPa] | vapor or sublimation pressure ([2]; 323.1 K) [kPa] | vapor or sublimation pressure ([2]; 333.05 K) [kPa] | vapor or sublimation pressure ([2]; 343 K) [kPa] | vapor or sublimation pressure ([2]; 352.9 K) [kPa] | vapor or sublimation pressure ([2]; 358.15 K) [kPa] | vapor or sublimation pressure ([2]; 358.45 K) [kPa] | vapor or sublimation pressure ([2]; 361.15 K) [kPa] | vapor or sublimation pressure ([2]; 364.15 K) [kPa] | vapor or sublimation pressure ([2]; 367.15 K) [kPa]
CC(Cl)CCl (stereo not drawn) [1,2-dichloropropane] | 1.4383 ± 0.0007 |  |  |  |  |  |  |  |  |  |  |  |  |  |  |  |  |  | 
CC(O)CCl (stereo not drawn) [1-chloro-2-propanol] | 1.4377 ± 0.0007 | 1.199 ± 0.99 | 2.225 ± 1.1 | 3.981 ± 1.3 | 6.662 ± 1.7 | 10.88 ± 2.4 | 17.2 ± 3.3 | 26.48 ± 4.7 | 39.8 ± 6.7 | 50.1 ± 8.2 |  |  |  |  |  |  |  |  | 
CC(C)(Cl)OC(C)(C)Cl [propane, 2,2'-oxybis[2-chloro-] | 1.4473 ± 0.0007 |  | 0.24 ± 0.18 | 0.564 ± 0.34 |  |  |  |  |  |  | 0.867 ± 0.49 | 1.28 ± 0.7 | 1.919 ± 0.69 | 2.822 ± 0.78 | 3.673 ± 0.87 | 3.348 ± 0.83 | 4.237 ± 0.92 | 4.806 ± 0.97 | 5.477 ± 1
